# Assay results reported in patent US20160175292A1, “Antioxidants Having Aromatic Structures Reacting with Superoxide” (priority 2014, published 2016).
# Entries after “also recorded” stand apart in the source; their conditions may differ.
# Legend:
# T cell proliferation = experiment: In vitro T cell proliferation (FIG. 9); format: cell-based
# Description: This is similar to the activity observed with PEG-HCCs.
# rat T cells = experiment: In vitro proliferation of ConA-stimulated rat T cells, micromolar concentration (FIG. 10); format: cell-based; conditions: rat T cells stimulated with 1 μg/mL ConA
# Protocol: In vitro analysis of EG3-NDI LNA20, EG8-PDI LNA30, and EG8-NDI, labeled LNA38 (which is Compound A in FIG. 4 where n=8) on T cell proliferation based on micromolar concentration was performed. 1 μg/mL ConA (mitogen) was used to stimulate rat T cells. […] Error bars represent variability between replicate wells. Unstimulated cells (left-hand bar) are shown as a negative control. Statistical analysis was performed between stimulated control cells without treatment (“Stimulated” bar) vs. various doses of the different compounds using a one-way ANOVA and Bonferonni post-hoc tests. *P<0.05, ***P<0.001, ****P<0.0001.
# [1] = Superoxide scavenging assay using nitroblue tetrazolium (NBT) and KO2 (FIG. 11); format: biochemical; conditions: NBT added 30 s, 60 s, 120 s, 300 s after KO2; diformazan at 560 nm
# Protocol: The antioxidant and buffer/solvent was added to a cuvette, followed by the KO2 solution. After a set time (30 s, 60 s, 120 s, 300 s), NBT was added and the resulting mixture analyzed for the NBT diformazan (λmax=560 nm) by UV-Vis spectroscopy (FIG. 11).
# In FIG. 11, PEG-HCCs and p-benzoquinone (pBQ) were also run for comparison.
# [2] = Cyclic voltammetry, reduction potential (FIG. 12); format: physicochemical; conditions: 50 mM PBS pH 7.4, modified glassy carbon electrode, scan rate 100 mV/s
# Protocol: FIG. 12 is a cyclic voltometry (“CV”) plot of 50 mM PBS (pH=7.4) bare glassy carbon (GC) working electrode and with modified perylene tetracarboxylic anhydride (PTCA) and HCC. (Scan rate: 100 mV/s).
# The triethyleneglycol-PDIs (TEG-PDIs) and TEG-NDIs have been analyzed electrochemically and show similar reduction potentials to the HCCs and PEG-HCCs. Electrochemical investigations of HCCs have placed its reduction at −0.7 V vs. Ag/AgCl, as shown by its broad peak in Plot A below.
# Accordingly, the triethyleneglycol-PDIs (TEG-PDIs) and TEG-NDIs have been analyzed electrochemically and shown to have similar reduction potentials to the HCCs and PEG-HCCs. Electrochemical investigations of HCCs have placed its reduction at —0.7 V vs. Ag/AgCl (Plot A). 3,4,9,10-Perylenediimide (PDI) derivatives also have redox potentials˜−0.6 V. 1,4,5,8-Naphthalenediimide (NDI) derivatives show discrete reduction steps in the same region (Plot B).
Compound,concentrations showing inhibitory effects on T cell proliferation (T cell proliferation),effect on T cell proliferation (T cell proliferation),effect on T cell proliferation (rat T cells),relative potency in inhibiting T cell proliferation (rat T cells),superoxide consumption / reaction with superoxide (reduction of NBT) [1],reduction potential [2] [V vs. Ag/AgCl]
"COCCOCCOCCN1C(=O)c2ccc3c4c(ccc(c24)C1=O)C(=O)N(CCOCCOCCOC)C3=O [LNA20, bis-methoxytriethylene glycol naphthalene diimide]",above 10 μg/mL,exhibit an inhibitory effect,exhibit an inhibitory effect,most potent,reacts with superoxide; also recorded: showed activity,–
O=C1OC(=O)c2ccc3c4ccc5c6c(ccc(c7ccc1c2c73)c64)C(=O)OC5=O [perylene tetracarboxylic anhydride],–,–,–,–,–,−0.7
"O=C1C=CC(=O)C=C1 [pBQ, p-benzoquinone, reference compound]",–,–,–,–,near complete consumption of superoxide; also recorded: nearly completely consumed,–
